Assay results as given in ChEMBL document CHEMBL3046063, “Synthesis and antimicrobial activity of 5-chloroindoline-2,3-dione derivatives” (2012).
≈ marks a conversion by molar mass, not a printed value.

Tests used:
Format in all cases: functional
[1] = system: Escherichia coli; experiment: Antimicrobial activity against Escherichia coli ATCC 25922 after 24 hr by broth dilution method; conditions: ATCC 25922, 24 h
[2] = system: Trichophyton longifusum; experiment: Antimicrobial activity against Trichophyton longifusum ATCC 22397 after 24 hr by broth dilution method; conditions: ATCC 22397, 24 h
[3] = system: Proteus vulgaris; experiment: Antimicrobial activity against Proteus vulgaris ATCC 13315 after 24 hr by broth dilution method; conditions: ATCC 13315, 24 h
[4] = system: Aspergillus flavus; experiment: Antimicrobial activity against Aspergillus flavus ATCC 15517 after 24 hr by broth dilution method; conditions: ATCC 15517, 24 h
[5] = system: Rhizoctonia solani; experiment: Antimicrobial activity against Rhizoctonia solani ATCC 76131 after 24 hr by broth dilution method; conditions: ATCC 76131, 24 h
[6] = system: Fusarium solani; experiment: Antimicrobial activity against Fusarium solani ATCC 38136 after 24 hr by broth dilution method; conditions: ATCC 38136, 24 h
[7] = system: Micrococcus luteus; experiment: Antimicrobial activity against Micrococcus luteus ATCC 4698 after 24 hr by broth dilution method; conditions: ATCC 4698, 24 h
[8] = system: Bacillus pumilus; experiment: Antimicrobial activity against Bacillus pumilus ATCC 14884 after 24 hr by broth dilution method; conditions: ATCC 14884, 24 h
[9] = system: Bacillus cereus; experiment: Antimicrobial activity against Bacillus cereus ATCC 11778 after 24 hr by broth dilution method; conditions: ATCC 11778, 24 h
[10] = system: Bacillus spizizenii; experiment: Antimicrobial activity against Bacillus subtilis subsp. spizizenii ATCC 6633 after 24 hr by broth dilution method; conditions: ATCC 6633, 24 h
[11] = system: Klebsiella pneumoniae; experiment: Antimicrobial activity against Klebsiella pneumoniae ATCC 13883 after 24 hr by broth dilution method; conditions: ATCC 13883, 24 h
[12] = system: Aspergillus niger; experiment: Antimicrobial activity against Aspergillus niger ATCC 9142 after 24 hr by broth dilution method; conditions: ATCC 9142, 24 h
[13] = system: Alternaria alternata; experiment: Antimicrobial activity against Alternaria alternata ATCC 66868 after 24 hr by broth dilution method; conditions: ATCC 66868, 24 h
[14] = system: Aspergillus fumigatus; experiment: Antimicrobial activity against Aspergillus fumigatus after 24 hr by broth dilution method
[15] = system: Proteus mirabilis; experiment: Antimicrobial activity against Proteus mirabilis ATCC 49565 after 24 hr by broth dilution method; conditions: ATCC 49565, 24 h
[16] = system: Candida albicans; experiment: Antimicrobial activity against Candida albicans ATCC 10231 after 24 hr by broth dilution method; conditions: ATCC 10231, 24 h
[17] = system: Trichoderma viride; experiment: Antimicrobial activity against Hypocrea rufa ATCC 52440 after 24 hr by broth dilution method; conditions: ATCC 52440, 24 h
[18] = system: Staphylococcus epidermidis; experiment: Antimicrobial activity against Staphylococcus epidermidis ATCC 12228 after 24 hr by broth dilution method; conditions: ATCC 12228, 24 h
[19] = system: Pseudomonas aeruginosa; experiment: Antimicrobial activity against Pseudomonas aeruginosa ATCC 10145 after 24 hr by broth dilution method; conditions: ATCC 10145, 24 h
[20] = system: Staphylococcus hominis; experiment: Antimicrobial activity against Staphylococcus hominis ATCC 27844 after 24 hr by broth dilution method; conditions: ATCC 27844, 24 h
[21] = system: Salmonella typhi; experiment: Antimicrobial activity against Salmonella enterica subsp. enterica serovar Typhi ATCC 19430 after 24 hr by broth dilution method; conditions: ATCC 19430, 24 h
[22] = system: Aspergillus awamori; experiment: Antimicrobial activity against Aspergillus awamori ATCC 22342 after 24 hr by broth dilution method; conditions: ATCC 22342, 24 h
[23] = system: Microsporum canis; experiment: Antimicrobial activity against Arthroderma otae ATCC 11622 after 24 hr by broth dilution method; conditions: ATCC 11622, 24 h
[24] = system: Staphylococcus aureus; experiment: Antimicrobial activity against Staphylococcus aureus ATCC 25923 after 24 hr by broth dilution method; conditions: ATCC 25923, 24 h

Row | SMILES | MIC [1] | MIC [2] | MIC [3] | MIC [4] | MIC [5] | MIC [6] | MIC [7] | MIC [8] | MIC [9] | MIC [10] | MIC [11] | MIC [12] | MIC [13] | MIC [14] | MIC [15] | MIC [16] | MIC [17] | MIC [18] | MIC [19] | MIC [20] | also measured
1 | CN(C)c1ccc(C2SCC(=O)N2/N=C2\C(=O)Nc3ccc(Cl)cc32)cc1 (centres undefined) | 18.8 µg/mL (≈ 46.8 µM) | 4.68 µg/mL (≈ 11.7 µM) | 18.8 µg/mL (≈ 46.8 µM) | 4.68 µg/mL (≈ 11.7 µM) | 4.68 µg/mL (≈ 11.7 µM) | 4.68 µg/mL (≈ 11.7 µM) | 18.8 µg/mL (≈ 46.8 µM) | 9.37 µg/mL (≈ 23.4 µM) | 18.8 µg/mL (≈ 46.8 µM) | 18.8 µg/mL (≈ 46.8 µM) | 18.8 µg/mL (≈ 46.8 µM) | 4.68 µg/mL (≈ 11.7 µM) | 4.68 µg/mL (≈ 11.7 µM) | 4.68 µg/mL (≈ 11.7 µM) | 9.37 µg/mL (≈ 23.4 µM) | 9.37 µg/mL (≈ 23.4 µM) | 4.68 µg/mL (≈ 11.7 µM) | 18.8 µg/mL (≈ 46.8 µM) | 18.8 µg/mL (≈ 46.8 µM) | 9.37 µg/mL (≈ 23.4 µM) | MIC [21]: 9.37 µg/mL (≈ 23.4 µM); MIC [22]: 9.37 µg/mL (≈ 23.4 µM); MIC [23]: 9.37 µg/mL (≈ 23.4 µM); MIC [24]: 9.37 µg/mL (≈ 23.4 µM)
2 | O=C1Nc2ccc(Cl)cc2/C1=N/N1C(=O)CSC1c1ccc(O)cc1 (centres undefined) | 18.8 µg/mL (≈ 50.2 µM) | 4.68 µg/mL (≈ 12.5 µM) | 9.37 µg/mL (≈ 25.1 µM) | 9.37 µg/mL (≈ 25.1 µM) | 9.37 µg/mL (≈ 25.1 µM) | 4.68 µg/mL (≈ 12.5 µM) | 18.8 µg/mL (≈ 50.2 µM) | 9.37 µg/mL (≈ 25.1 µM) | 18.8 µg/mL (≈ 50.2 µM) | 18.8 µg/mL (≈ 50.2 µM) | 9.37 µg/mL (≈ 25.1 µM) | 4.68 µg/mL (≈ 12.5 µM) | 9.37 µg/mL (≈ 25.1 µM) | 4.68 µg/mL (≈ 12.5 µM) | 18.8 µg/mL (≈ 50.2 µM) | 4.68 µg/mL (≈ 12.5 µM) | 4.68 µg/mL (≈ 12.5 µM) | 9.37 µg/mL (≈ 25.1 µM) | 9.37 µg/mL (≈ 25.1 µM) | 9.37 µg/mL (≈ 25.1 µM) | MIC [21]: 9.37 µg/mL (≈ 25.1 µM); MIC [22]: 4.68 µg/mL (≈ 12.5 µM); MIC [23]: 9.37 µg/mL (≈ 25.1 µM); MIC [24]: 18.8 µg/mL (≈ 50.2 µM)
3 | Clc1ccccc1C(c1ccccc1)(c1ccccc1)n1ccnc1 [CLOTRIMAZOLE] |  | 2.34 µg/mL (≈ 6.79 µM) |  | 2.34 µg/mL (≈ 6.79 µM) | 1.17 µg/mL (≈ 3.39 µM) | 1.17 µg/mL (≈ 3.39 µM) |  |  |  |  |  | 2.34 µg/mL (≈ 6.79 µM) | 2.34 µg/mL (≈ 6.79 µM) | 2.34 µg/mL (≈ 6.79 µM) |  | 0.58 µg/mL (≈ 1.68 µM) | 1.17 µg/mL (≈ 3.39 µM) |  |  |  | MIC [22]: 2.34 µg/mL (≈ 6.79 µM); MIC [23]: 1.17 µg/mL (≈ 3.39 µM)
4 | O=C1Nc2ccc(Cl)cc2/C1=N/N1C(=O)C(Cl)C1c1ccc(Cl)cc1 (centres undefined) | 18.8 µg/mL (≈ 47.5 µM) | 4.68 µg/mL (≈ 11.9 µM) | 9.37 µg/mL (≈ 23.7 µM) | 9.37 µg/mL (≈ 23.7 µM) | 9.37 µg/mL (≈ 23.7 µM) | 4.68 µg/mL (≈ 11.9 µM) | 18.8 µg/mL (≈ 47.5 µM) | 9.37 µg/mL (≈ 23.7 µM) | 18.8 µg/mL (≈ 47.5 µM) | 9.37 µg/mL (≈ 23.7 µM) | 9.37 µg/mL (≈ 23.7 µM) | 4.68 µg/mL (≈ 11.9 µM) | 9.37 µg/mL (≈ 23.7 µM) | 4.68 µg/mL (≈ 11.9 µM) | 18.8 µg/mL (≈ 47.5 µM) | 4.68 µg/mL (≈ 11.9 µM) | 4.68 µg/mL (≈ 11.9 µM) | 18.8 µg/mL (≈ 47.5 µM) | 18.8 µg/mL (≈ 47.5 µM) | 9.37 µg/mL (≈ 23.7 µM) | MIC [21]: 9.37 µg/mL (≈ 23.7 µM); MIC [22]: 4.68 µg/mL (≈ 11.9 µM); MIC [23]: 9.37 µg/mL (≈ 23.7 µM); MIC [24]: 18.8 µg/mL (≈ 47.5 µM)
5 | COc1ccc(C2C(Cl)C(=O)N2/N=C2\C(=O)Nc3ccc(Cl)cc32)cc1 (centres undefined) | 9.37 µg/mL (≈ 24 µM) | 4.68 µg/mL (≈ 12 µM) | 18.8 µg/mL (≈ 48 µM) | 9.37 µg/mL (≈ 24 µM) | 9.37 µg/mL (≈ 24 µM) | 4.68 µg/mL (≈ 12 µM) | 9.37 µg/mL (≈ 24 µM) | 9.37 µg/mL (≈ 24 µM) | 9.37 µg/mL (≈ 24 µM) | 18.8 µg/mL (≈ 48 µM) | 9.37 µg/mL (≈ 24 µM) | 4.68 µg/mL (≈ 12 µM) | 9.37 µg/mL (≈ 24 µM) | 4.68 µg/mL (≈ 12 µM) | 18.8 µg/mL (≈ 48 µM) | 4.68 µg/mL (≈ 12 µM) | 4.68 µg/mL (≈ 12 µM) | 9.37 µg/mL (≈ 24 µM) | 9.37 µg/mL (≈ 24 µM) | 18.8 µg/mL (≈ 48 µM) | MIC [21]: 9.37 µg/mL (≈ 24 µM); MIC [22]: 4.68 µg/mL (≈ 12 µM); MIC [23]: 9.37 µg/mL (≈ 24 µM); MIC [24]: 18.8 µg/mL (≈ 48 µM)
6 | O=C1Nc2ccc(Cl)cc2/C1=N/N1C(=O)C(Cl)C1c1ccc(O)cc1 (centres undefined) | 9.37 µg/mL (≈ 24.9 µM) | 4.68 µg/mL (≈ 12.4 µM) | 9.37 µg/mL (≈ 24.9 µM) | 4.68 µg/mL (≈ 12.4 µM) | 4.68 µg/mL (≈ 12.4 µM) | 9.37 µg/mL (≈ 24.9 µM) | 18.8 µg/mL (≈ 49.8 µM) | 9.37 µg/mL (≈ 24.9 µM) | 9.37 µg/mL (≈ 24.9 µM) | 9.37 µg/mL (≈ 24.9 µM) | 18.8 µg/mL (≈ 49.8 µM) | 4.68 µg/mL (≈ 12.4 µM) | 4.68 µg/mL (≈ 12.4 µM) | 4.68 µg/mL (≈ 12.4 µM) | 9.37 µg/mL (≈ 24.9 µM) | 4.68 µg/mL (≈ 12.4 µM) | 4.68 µg/mL (≈ 12.4 µM) | 9.37 µg/mL (≈ 24.9 µM) | 9.37 µg/mL (≈ 24.9 µM) | 18.8 µg/mL (≈ 49.8 µM) | MIC [21]: 9.37 µg/mL (≈ 24.9 µM); MIC [22]: 4.68 µg/mL (≈ 12.4 µM); MIC [23]: 4.68 µg/mL (≈ 12.4 µM); MIC [24]: 18.8 µg/mL (≈ 49.8 µM)
7 | O=C(O)c1cn(C2CC2)c2cc(N3CCNCC3)c(F)cc2c1=O [CIPROFLOXACIN] | 4.7 µg/mL (≈ 14.2 µM) |  | 4.7 µg/mL (≈ 14.2 µM) |  |  |  | 4.7 µg/mL (≈ 14.2 µM) | 4.7 µg/mL (≈ 14.2 µM) | 4.7 µg/mL (≈ 14.2 µM) | 4.7 µg/mL (≈ 14.2 µM) | 4.7 µg/mL (≈ 14.2 µM) |  |  |  | 4.7 µg/mL (≈ 14.2 µM) |  |  | 4.7 µg/mL (≈ 14.2 µM) | 4.7 µg/mL (≈ 14.2 µM) | 4.7 µg/mL (≈ 14.2 µM) | MIC [21]: 4.7 µg/mL (≈ 14.2 µM); MIC [24]: 4.7 µg/mL (≈ 14.2 µM)
